# Assay results published in the supplement of paper PMC10307832.
# Legend:
# Assay in all cases: relative viability (nuclei count vs DMSO), 5 days (fraction); higher = more cells survive
# Daporinad + Alpelisib = compound: O=C(/C=C/c1cccnc1)NCCCCC1CCN(C(=O)c2ccccc2)CC1 [Daporinad] + Cc1nc(NC(=O)N2CCC[C@H]2C(N)=O)sc1-c1ccnc(C(C)(C)C(F)(F)F)c1 [Alpelisib] (partner 2 µM)
# How it was run: (§1)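 Lung cancer cell lines were seeded in 1536-well plates and dosed by pin tool the next day, with either a single drug or a fixed anchor-drug dose combined with five library-drug doses (not always all listed) spaced in √10 steps. Five days later, one step fixed the cells and stained their nuclei (final 0.05% Triton X-100, 1% formaldehyde, 1 ug/ml Hoechst), and nuclei were counted on 4× images. Relative viability is the nuclei count in treated wells divided by the count in vehicle wells, and each value is the median of duplicate plates.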
# R406 + Palbociclib = compound: COc1cc(Nc2ncc(F)c(Nc3ccc4c(n3)NC(=O)C(C)(C)O4)n2)cc(OC)c1OC [R406] + CC(=O)c1c(C)c2cnc(Nc3ccc(N4CCNCC4)cn3)nc2n(C2CCCC2)c1=O [Palbociclib] (partner 0.5 µM)
# How it was run: as §1
# Daporinad + Decitabine = compound: O=C(/C=C/c1cccnc1)NCCCCC1CCN(C(=O)c2ccccc2)CC1 [Daporinad] + Nc1ncn([C@H]2C[C@H](O)[C@@H](CO)O2)c(=O)n1 [Decitabine] (partner 2 µM)
# How it was run: as §1
# R406 + Pemetrexed = compound: COc1cc(Nc2ncc(F)c(Nc3ccc4c(n3)NC(=O)C(C)(C)O4)n2)cc(OC)c1OC [R406] + Nc1nc2[nH]cc(CCc3ccc(C(=O)N[C@@H](CCC(=O)O)C(=O)O)cc3)c2c(=O)[nH]1 [Pemetrexed] (partner 0.2 µM)
# How it was run: as §1
Cell Line,relative viability (Daporinad + Alpelisib; first compound 0.0005 µM),relative viability (Daporinad + Alpelisib; first compound 0.001581 µM),relative viability (Daporinad + Alpelisib; first compound 0.005 µM),relative viability (Daporinad + Alpelisib; first compound 0.01581 µM),relative viability (R406 + Palbociclib; first compound 0.08 µM),relative viability (R406 + Palbociclib; first compound 0.253 µM),relative viability (R406 + Palbociclib; first compound 0.8 µM),relative viability (R406 + Palbociclib; first compound 2.53 µM),relative viability (R406 + Palbociclib; first compound 8 µM),relative viability (Daporinad + Decitabine; first compound 0.0005 µM),relative viability (Daporinad + Decitabine; first compound 0.001581 µM),relative viability (Daporinad + Decitabine; first compound 0.005 µM),relative viability (Daporinad + Decitabine; first compound 0.01581 µM),relative viability (R406 + Pemetrexed; first compound 0.08 µM),relative viability (R406 + Pemetrexed; first compound 0.253 µM),relative viability (R406 + Pemetrexed; first compound 0.8 µM),relative viability (R406 + Pemetrexed; first compound 2.53 µM),relative viability (R406 + Pemetrexed; first compound 8 µM)
201T,0.983,1.05,1,0.987,0.375,0.399,0.349,0.394,0.285,0.849,0.917,0.832,0.881,0.322,0.359,0.322,0.309,0.294
NCI-H1793,0.745,0.749,0.732,0.792,0.352,0.309,0.253,0.28,0.153,0.45,0.496,0.489,0.564,0.711,1.09,1.15,0.147,0.157
NCI-H520,0.967,0.546,0.196,0.166,0.173,0.209,0.244,0.164,0.108,0.558,0.513,0.283,0.18,0.698,0.724,0.675,0.285,0.153
HCC-15,0.89,0.931,1.05,0.901,0.818,0.827,0.801,0.728,0.594,0.601,0.714,0.771,0.766,0.213,0.223,0.2,0.201,0.144
LCLC-103H,1.01,1.01,1.02,1.06,0.45,0.507,0.529,0.46,0.319,0.793,0.692,0.744,0.774,0.477,0.462,0.486,0.499,0.376
NCI-H460,0.54,0.64,0.502,0.566,0.157,0.2,0.183,0.0283,0.0792,0.493,0.466,0.481,0.453,0.064,0.0593,0.0591,0.0591,0.0556
EPLC-272H,0.942,1.02,0.84,1.08,0.329,0.337,0.326,0.246,0.303,0.318,0.375,0.378,0.403,0.359,0.359,0.316,0.231,0.151
